Series [1] concerns Fasciola hepatica eggs (ABZ-susceptible isolate). As to the kind of experiment: Egg hatch test (EHT), ABZ-susceptible isolates. It is filed as cell-based. Particulars: for % Ovicidal activity: ABZ-susceptible isolate. The procedure:
Eggs were recovered from gallbladders of cattle naturally infected with F. hepatica at the municipal slaughterhouse of León (Spain). For this, the bile of the gallbladders was filtered through sieves of different diameter size pores (500, 150, and 20 µm) using pressurized tap water. Eggs retained on the 20 µm pore size sieve were collected and stored at 4 °C in darkness until required within a maximum period of 2 months.
The susceptibility of the isolates to ABZ was confirmed by the egg hatch test (EHT) using an ABZ discriminant dose (DD) of 0.5 µM [23]. The technique is described in more detail below.
The in vitro anthelmintic activity of a total of 70 BZDs was initially tested on F. hepatica eggs recovered from gallbladders of cattle naturally infected with ABZ-susceptible isolates. The first screening was performed using a fixed concentration of 50 µM. […] Therefore, only BZDs with ovicidal activities over 80% progressed to the next assays at 10 µM. […] At this last concentration, the ovicidal effect of ABZ, ABZSO, and OXF was also evaluated.
(§1) The in vitro EHT described in the current study was based on previous studies. Briefly, 100–120 eggs were incubated in 990 µL of water and 10 μL of each working solution at 25 °C in the dark for a period of 12 h. After incubation, eggs were gently washed with tap water three times to facilitate compound removal and kept in darkness at 25 °C for 14 days. After this period, eggs were exposed to light for 2 h to stimulate the hatching of eggs. Then, hatched and unhatched eggs were evaluated and counted using an optical microscope. The term “hatched eggs” includes both hatched and embryonated eggs. Negative control eggs were incubated with 10 μL of DMSO in 990 μL of water, reaching a maximum DMSO concentration of 1% (v/v), while ABZ at 0.5 µM was used as positive control. Each compound at a specific concentration was tested in triplicate in the same EHT and repeated at least two different days.
With the aim to characterize the susceptibility of isolates from naturally infected cattle, the drug used in the EHT was ABZ, tested at a discriminant dose of 0.5 μM. Drug susceptibility is assumed when the ovicidal activity is over 70%, resistance when is lower than 40%, and a suspicion of resistance when activity is between these values at 0.5 μM.
(§2) The efficacy of each compound and drug was calculated as its ovicidal activity following the formula below: Ovicidal activity%=100×%eggs hatched in negative control-%egg hatched after drug incubation/%egg hatched in control.

Series [2] deals with murine intestinal organoids. The experiment in a line: Intestinal tolerability assay on murine intestinal organoids. The series is classed as cell-based, mouse. The conditions noted are these: 25 µM. The procedure:
(§3) The murine intestinal organoid cultures were prepared following Stemcell Technologies™ protocols (https://www.stemcell.com/intestinal-epithelial-organoid-culture-with-intesticult-organoid-growth-medium-mouse-lp.html#protocols). Small intestine sections from C57BL/6 mice were excised, washed with ice-cold PBS, minced, and 2 mm segments were washed extensively. The segments were treated with Gentle Cell Dissociation Reagent (Stemcell Technologies™, Canada), resuspended in ice-cold PBS with 0.1% BSA and filtered. This process was repeated four times, resulting in four fractions. Cells from each fraction were centrifuged, washed, and resuspended in ice-cold DMEM/F12 supplemented with glutamine and HEPES 15 mM. Each fraction was mixed with Geltrex GFR LDEV-free (Gibco, Thermo Fisher Scientific, USA) and IntestiCult™ Organoid Grow Medium Mouse (Stemcell Technologies™, Canada), added to a 24-well plate and incubated at 37 °C for 10 min for matrix polymerization. The organoids were cultured in IntestiCult™ Organoid Grow Medium Mouse, with medium changes every 2 days and splitting after 7 days.
(§4) For intestinal tolerability assays, selected hit compounds were tested in mouse intestinal organoids at 25 and 50 µM final concentrations. The protocol, based on a previous work, involved the addition of Gentle Cell Dissociation Reagent (Stemcell Technologies™, Canada) on matrix domes, the disruption of the matrix, and the incubation the suspension. After centrifugation, cells were resuspended in DMEM/F12 supplemented with glutamine and HEPES 15 mM and centrifugated again. The pellet was resuspended in a mix of Geltrex GFR LDEV-free and IntestiCult™ Organoid Grow Medium Mouse. The mix was plated in 384-well plates, and after 4 days, mature organoids were exposed to the compounds. The positive control was hydrogen peroxide (0.15% v/v), and the negative control was DMSO (0.2%). Viability after 72 h was assessed using the alamarBlue assay.

The test system of series [3] is HepG2 cells. As to the kind of experiment: Cytotoxicity assay, alamarBlue. It is filed as cell-based, human. How it is done: (§5) The effect of the BZDs on cell viability was assessed on a human hepatocarcinoma HepG2 (ATCC® HB-8065™, USA) cell line. Only compounds screened at a concentration of 10 µM were evaluated. The detailed protocol is described in a previous study carried out by our research group. Briefly, 10,000 cells were seeded on 96-well plates and incubated with different concentrations of the compounds ranging from 1 to 100 µM at 37 °C and 5% CO2. After 72 h of exposure, viability of the cells was assessed using the alamarBlue (Fisher Scientific®, Spain) staining method according to the manufacturer’s recommendations.
(§6) The data are represented as mean ± standard error of media (SEM).
(In general: Resazurin is reduced to fluorescent resorufin, in cell work by metabolically active cells.)

The test system of series [4] is Haemonchus contortus. The conditions noted are these: sheep infected with Haemonchus contortus, 120 mg/kg; cited from earlier work.
Series [5] relates to Fasciola hepatica (resistant isolate). The experiment in a line: In vivo efficacy of ABZ in sheep infected with the resistant isolate (worm count, FECRT). Particulars: ABZ 7.5 mg/kg. The source says:
F. hepatica eggs were recovered after washing the gallbladder of three naturally infected sheep belonging to a flock suspected to be resistant to ABZ. From these eggs, metacercariae were produced at the Centro de Investigaciones de Mabegondo (AGACAL, Xunta de Galicia, Spain) following a previous protocol. These metacercariae were used to infect eight sheep with a dose of 200 metacercariae. The infection was confirmed individually 3 months after the infection by coprological analysis using a sedimentation technique. At that point, sheep were randomly located in two groups of four animals: one treated with a therapeutic dose of ABZ (7.5 mg/kg) and the other one only with water, as control group. […] Afterwards, the in vivo efficacy of ABZ was calculated as the percentage of adult worm reduction compared with the untreated control. […]
The percentage of in vivo efficacy of ABZ and the FECRT were calculated using the following formulas, respectively: %of Worm Reduction=100×Mean of adult worms in control group-Mean of adult worms in treated group/Mean of adult worms in control group. %FECRT=100×Arithmetic mean EPG day0-Arithmetic mean EPG day 14/Arithmetic mean EPG day0.

Series [6] has as its system Fasciola hepatica eggs. Also noted: method as in PMID 19560276. Particulars: other studies, cited from earlier work.
The subject of series [7] is Fasciola hepatica eggs (ABZ-resistant isolate). The experiment in a line: Egg hatch test (EHT), ABZ-resistant isolate. It is filed as cell-based. Particulars: ABZ at discriminant dose (DD) 0.5 µM.
Text: F. hepatica eggs were recovered after washing the gallbladder of three naturally infected sheep belonging to a flock suspected to be resistant to ABZ. From these eggs, metacercariae were produced at the Centro de Investigaciones de Mabegondo (AGACAL, Xunta de Galicia, Spain) following a previous protocol. These metacercariae were used to infect eight sheep with a dose of 200 metacercariae. The infection was confirmed individually 3 months after the infection by coprological analysis using a sedimentation technique. At that point, sheep were randomly located in two groups of four animals: one treated with a therapeutic dose of ABZ (7.5 mg/kg) and the other one only with water, as control group. To assess the efficacy of ABZ in this isolate, all sheep were humanely euthanized by an intravenous administration of a lethal dose of sodium pentobarbital (Dolethal®, Vetoquinol, Spain) 2 weeks later for fluke recovery and counting. Afterwards, the in vivo efficacy of ABZ was calculated as the percentage of adult worm reduction compared with the untreated control. Additionally, the number of eggs per gram of feces (EPG) was estimated on the treatment day (mentioned as day 0) and 14 days later to determine drug efficacy by means of the fecal egg count reduction test (FECRT).
During the necropsy, gallbladders from sheep belonging to the untreated group were taken to collect the eggs and carry out the in vitro EHT, while flukes collected from livers were used to conduct the adult viability test (AVT).
Those BZDs with an activity higher than 80% at a concentration of 10 µM were also screened on eggs and adults from the ABZ resistant isolate.
as §1, §2

The test system of series [8] is Trichuris muris adults. Also on record: method as in PMID 35804427. The conditions noted are these: 10 µM; cited from earlier work.
The nature of series [9]: Intestinal tolerability assay on murine intestinal organoids. The series is classed as cell-based, mouse. The conditions noted are these: C57BL/6, mouse, murine small-intestinal organoids, 72 h. How it is done: as §3, §4
Series [10] can be described thus: Cytotoxicity assay, alamarBlue. The series is classed as cell-based, human. Particulars: human, HepG2 cells; 72 h exposure, alamarBlue; read-out: CC50 Hep-G2. How it is done: as §5, §6
The subject of series [11] is Heligmosomoides polygyrus adults. Also on record: method as in PMID 35804427. The conditions noted are these: 10 µM; cited from earlier work.
The test system of series [12] is Teladorsagia circumcincta eggs. The conditions noted are these: read-out: 50% inhibitory concentration (IC50) in eggs by the EHT; T. circumcincta eggs; type I BZDs; cited from earlier work.

Values joined by “and” are separate entries in the source; they are usually repeats but may differ in a detail not shown here. Identical values can stand only once.

This is an account of results in article PMC10993450, “New benzimidazole derivative compounds with in vitro fasciolicidal properties” (Parasites & Vectors, 2024).

A word on the CC50: it is the concentration that lowers cell viability or growth by half. On to `O=C(Nc1nc2cc(Cl)ccc2[nH]1)c1ccccn1` [BZD58], for which the “% Ovicidal activity” value is reported as “around 50%” in series [1] (10 µM, mean ± SEM) and “higher than 80%” in [1] (50 µM, mean ± SEM). In addition, the “% Viability in organoids” value in [2] is recorded as 100%. For the same compound, in series [3], the CC50 is more than 5 µM. Further, in series [4], the in vivo efficacy was 95%.

For `CCCSc1ccc2nc(NC(=O)OC)[nH]c2c1` [ABZ, albendazole, reference compound], the “% Ovicidal activity” value in [1] (ABZ at discriminant dose (DD) 0.5 µM) was 99.1% and 98%; in series [1] (ABZ at discriminant dose (DD) 0.5 µM, listed as ABZ (DD)), 99.01 ± 00.37% and 98.55 ± 00.41%. In series [5] (day 0 vs day 14), the “reduction in the number of eggs in feces (FECRT)” value worked out at 0%. In addition, the “survival rate of the adult flukes” value in series [5] (necropsy 2 weeks after treatment) is on record as 96.7%. Moreover, in [6] (in vitro), the “Lowest concentration able to reduce egg hatching” value is recorded as 0.05 µM. For the same compound, the figures for the “% Ovicidal activity resistant isolate” value in series [7] and in series [7] (listed as ABZ (DD)) were 36.5% and 36.46 ± 02.36%, respectively.

`O=[N+]([O-])c1ccc2[nH]c(-c3ccc(Cl)cc3)nc2c1` [BZD15]: the “% Ovicidal activity” value in series [1] (50 µM, mean ± SEM) was 24.32 ± 10.58%. In addition, the “Inhibition of Trichuris muris adult motility” value in [8] is “inhibited Trichuris muris adult motility”.

In general, viability refers to a read-out of living cells in per cent, often relative to untreated cells. Higher therefore signals better survival. Regarding `CSc1nc2cc(Cl)c(Oc3cccc(Cl)c3Cl)cc2[nH]1` [TCBZ, triclabendazole, reference compound], the killing at 5 µM in series [1] (Fasciola hepatica, 5 µM, mean ± SEM, read-out: % Ovicidal activity susceptible isolate) was not above 2%. Besides, the viability at 72 h, 25 µM in series [9] (25 µM) was approximately 82%. The viability at 72 h, 50 µM in [9] (50 µM) is approximately 1.5%. The “Effect on in vitro egg hatching” value in series [6] is on record as “did not affect in vitro egg hatching”. Further, the 50% cytotoxic concentration (CC50) at 72 h in series [10] is more than 50 µM.

For `Clc1ccc(-c2nc3cc(Cl)ccc3[nH]2)cc1` [BZD09], in [11], the “Inhibition of motility of Heligmosomoides polygyrus adults” value is “effectively inhibited the motility”. Besides, the “% Ovicidal activity” value in series [1] (50 µM, mean ± SEM) came to 04.96 ± 1.22%. Also, the IC50 in [12] was 6 µM.
